Experimental data published in patent US20150336999A1, “PROCESS FOR THE PRODUCTION OF SOPHOROSE STARTING FROM SOPHOROLIPIDS” (IFP ENERGIES NOUVELLES, priority 2012, published 2015).
“And” between values parts separate entries of the source, which are not always exact repeats. Equal entries are not always repeated.

How the values were obtained:
T. reesei CL847 = experiment: Fed-batch cellulase production by T. reesei CL847 with sugar mixture containing inducing sugar; specific rate of protein production; format: cell-based, Trichoderma reesei; conditions: for specific protein production rate: fed-batch 166 h, 30° C.
Experimental: After growing cells of T. reesei CL847 (Durand H. et al. (1988a) Classical and molecular genetics applied to Trichoderma reesei for the selection of improved cellulolytic industrial strains. In: FEMS Symposium n° 43: Biochemistry and Genetics of Cellulose Degradation, p. 135-151. Academic Press, London) on glucose in stirred flasks up to the exhaustion of the glucose, cellulase production was carried out using a “fed-batch” process employing a solution the composition of which was as follows: 50 g/L of a mixture of sugars and 15 mL/L of 20% by weight NH3 as described in the publication “A new stoichiometric miniaturization strategy for screening of industrial microbial strains: application to cellulase hyper-producing Trichoderma reesei strains”, Microbial Cell Factories 2012, 11:70.
The mixture of sugars used contained (100−x)% by weight of glucose and x% by weight of inducing sugar:
in the first case (control), the inducing sugar was lactose at a quantity of x=8%
in the second, third and fourth cases, the inducing sugar was sophorose from the hydrolysate obtained in Example 3 which had been supplemented with pure glucose in order to have x=8%, x=0.3% and x=0.03% respectively.
The fed-batch process was carried out for 166 hours with a solution supply flow rate of 0.3 mL/h and at a temperature of 30° C.
Daily samples were taken in order to monitor the concentration of cells and the concentration of proteins. The induction capacity of the mixture of sugars used for the fed-batch process was expressed as the specific rate of protein production (mg of proteins produced per gram of producer cells per hour).

[1] = tested on: cellulolytic Trichoderma reesei system; conditions: known from the prior art (Mandels et al. 1962); cited from earlier work
[2] = inducing sugar x=8% by weight of sugar mixture (rest glucose)

| SMILES | specific protein production rate (T. reesei CL847; [2]) | induction relative to the mixture containing lactose at the same concentration (T. reesei CL847; 8% sophorose versus 8% lactose) | specific protein production rate (T. reesei CL847; inducing sugar x=0.03% by weight of sugar mixture (rest glucose)) [mg/g/h] | specific protein production rate (T. reesei CL847; inducing sugar x=0.3% by weight of sugar mixture (rest glucose)) [mg/g/h] | inducer of the cellulolytic Trichoderma reesei system [1] |
| --- | --- | --- | --- | --- | --- |
| OC[C@H]1O[C@@H](O[C@H]2[C@H](O)[C@@H](O)C(O)O[C@@H]2CO)[C@H](O)[C@@H](O)[C@H]1O (stereo partly drawn) [lactose, reference compound] | 6.4 mg/g/h and ~6 mg/g/h | – | – | – | – |
| O=C[C@H](O[C@@H]1O[C@H](CO)[C@@H](O)[C@H](O)[C@H]1O)[C@@H](O)[C@H](O)[C@H](O)CO [sophorose, 2-O-β-D-glucopyranosyl-D-glucose] | 12 mg/g/h | approximately twice as high | ~6 | 10.5 | very good inducer |
